Active and inactive are the calls of the source.
How the values were obtained:
[1] = molecular target: Sphingosine 1-phosphate receptor 1 (Homo sapiens) (UniProt P21453); assay: Induction of human S1P1 receptor internalization expressed in CHO cells at 1 uM after 60 mins; type: cell-based
[2] = molecular target: Sphingosine 1-phosphate receptor 1 (Homo sapiens) (UniProt P21453); assay: Induction of human S1P1 receptor internalization expressed in CHO cells pretreated at 1 uM for 1 hr measured after 5 hrs washout period; type: cell-based
[3] = molecular target: Sphingosine 1-phosphate receptor 1 (Homo sapiens) (UniProt P21453); assay: Agonist activity at human S1P1 receptor expressed in CHO cells assessed as inhibition of forskolin-stimulated cAMP formation pretreated at 1 uM for 1 hr measured after 5 hrs washout peroid; type: functional, cell-based
[4] = molecular target: Sphingosine 1-phosphate receptor 1 (Homo sapiens) (UniProt P21453); settings: CHO, 1 uM
Description: Agonist activity at human S1P1 receptor expressed in CHO cells assessed as inhibition of forskolin-stimulated cAMP formation at 1 uM after 20 mins

[5] = molecular target: Sphingosine 1-phosphate receptor 1 (Homo sapiens) (UniProt P21453); settings: CHO, 1 uM; remark: listed apart in the source
Description: Agonist activity at human S1P1 receptor expressed in CHO cells assessed as inhibition of forskolin-stimulated cAMP formation at 1 uM after 60 mins

Sphingosine 1-phosphate receptor 1 (Homo sapiens), sequence (P21453 whole entry): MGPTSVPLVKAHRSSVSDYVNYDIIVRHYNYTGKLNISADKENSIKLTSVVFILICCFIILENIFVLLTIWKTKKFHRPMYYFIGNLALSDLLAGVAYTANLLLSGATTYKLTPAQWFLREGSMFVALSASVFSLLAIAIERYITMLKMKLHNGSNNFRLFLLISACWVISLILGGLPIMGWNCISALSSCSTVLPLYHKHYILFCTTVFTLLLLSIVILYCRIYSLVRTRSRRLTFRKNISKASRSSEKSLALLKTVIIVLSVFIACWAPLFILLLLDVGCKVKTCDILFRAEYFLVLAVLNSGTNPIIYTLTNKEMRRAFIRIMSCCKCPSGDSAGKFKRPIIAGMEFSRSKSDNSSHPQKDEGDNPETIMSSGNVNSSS

CCCCCCCCCCCCC/C=C/[C@@H](O)[C@@H](N)COP(=O)(O)O
active: Activity [1] | Activity [2] | inhibition [3] | inhibition [4] | inhibition [5]

— ChEMBL document CHEMBL1212718, “Persistent signaling induced by FTY720-phosphate is mediated by internalized S1P1 receptors” (Nat Chem Biol, 2009)
